target: T1, PIKfyve (Homo sapiens, UniProt Q9Y2I7); test: Degradation of PIKfyve proteins in VCaP tumor cells (24 h, Western blot); assay type: cell-based; details: 37° C., compared with DMSO control, WB, read-out: DC50 (concentration that achieves 50% degradation activity)
T1 construct: endogenous in cells; host or cells: VCaP
Procedure, shortened: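 VCaP cells (5×10^6 cells/ml) treated with a range of compound concentrations at 37° C for 24 h, then lysed in SDS buffer. PIKfyve level measured by Western blot with GAPDH as loading control and ECL detection. DC50 is the concentration giving 50% degradation relative to DMSO control.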

T1 sequence (Q9Y2I7 whole entry): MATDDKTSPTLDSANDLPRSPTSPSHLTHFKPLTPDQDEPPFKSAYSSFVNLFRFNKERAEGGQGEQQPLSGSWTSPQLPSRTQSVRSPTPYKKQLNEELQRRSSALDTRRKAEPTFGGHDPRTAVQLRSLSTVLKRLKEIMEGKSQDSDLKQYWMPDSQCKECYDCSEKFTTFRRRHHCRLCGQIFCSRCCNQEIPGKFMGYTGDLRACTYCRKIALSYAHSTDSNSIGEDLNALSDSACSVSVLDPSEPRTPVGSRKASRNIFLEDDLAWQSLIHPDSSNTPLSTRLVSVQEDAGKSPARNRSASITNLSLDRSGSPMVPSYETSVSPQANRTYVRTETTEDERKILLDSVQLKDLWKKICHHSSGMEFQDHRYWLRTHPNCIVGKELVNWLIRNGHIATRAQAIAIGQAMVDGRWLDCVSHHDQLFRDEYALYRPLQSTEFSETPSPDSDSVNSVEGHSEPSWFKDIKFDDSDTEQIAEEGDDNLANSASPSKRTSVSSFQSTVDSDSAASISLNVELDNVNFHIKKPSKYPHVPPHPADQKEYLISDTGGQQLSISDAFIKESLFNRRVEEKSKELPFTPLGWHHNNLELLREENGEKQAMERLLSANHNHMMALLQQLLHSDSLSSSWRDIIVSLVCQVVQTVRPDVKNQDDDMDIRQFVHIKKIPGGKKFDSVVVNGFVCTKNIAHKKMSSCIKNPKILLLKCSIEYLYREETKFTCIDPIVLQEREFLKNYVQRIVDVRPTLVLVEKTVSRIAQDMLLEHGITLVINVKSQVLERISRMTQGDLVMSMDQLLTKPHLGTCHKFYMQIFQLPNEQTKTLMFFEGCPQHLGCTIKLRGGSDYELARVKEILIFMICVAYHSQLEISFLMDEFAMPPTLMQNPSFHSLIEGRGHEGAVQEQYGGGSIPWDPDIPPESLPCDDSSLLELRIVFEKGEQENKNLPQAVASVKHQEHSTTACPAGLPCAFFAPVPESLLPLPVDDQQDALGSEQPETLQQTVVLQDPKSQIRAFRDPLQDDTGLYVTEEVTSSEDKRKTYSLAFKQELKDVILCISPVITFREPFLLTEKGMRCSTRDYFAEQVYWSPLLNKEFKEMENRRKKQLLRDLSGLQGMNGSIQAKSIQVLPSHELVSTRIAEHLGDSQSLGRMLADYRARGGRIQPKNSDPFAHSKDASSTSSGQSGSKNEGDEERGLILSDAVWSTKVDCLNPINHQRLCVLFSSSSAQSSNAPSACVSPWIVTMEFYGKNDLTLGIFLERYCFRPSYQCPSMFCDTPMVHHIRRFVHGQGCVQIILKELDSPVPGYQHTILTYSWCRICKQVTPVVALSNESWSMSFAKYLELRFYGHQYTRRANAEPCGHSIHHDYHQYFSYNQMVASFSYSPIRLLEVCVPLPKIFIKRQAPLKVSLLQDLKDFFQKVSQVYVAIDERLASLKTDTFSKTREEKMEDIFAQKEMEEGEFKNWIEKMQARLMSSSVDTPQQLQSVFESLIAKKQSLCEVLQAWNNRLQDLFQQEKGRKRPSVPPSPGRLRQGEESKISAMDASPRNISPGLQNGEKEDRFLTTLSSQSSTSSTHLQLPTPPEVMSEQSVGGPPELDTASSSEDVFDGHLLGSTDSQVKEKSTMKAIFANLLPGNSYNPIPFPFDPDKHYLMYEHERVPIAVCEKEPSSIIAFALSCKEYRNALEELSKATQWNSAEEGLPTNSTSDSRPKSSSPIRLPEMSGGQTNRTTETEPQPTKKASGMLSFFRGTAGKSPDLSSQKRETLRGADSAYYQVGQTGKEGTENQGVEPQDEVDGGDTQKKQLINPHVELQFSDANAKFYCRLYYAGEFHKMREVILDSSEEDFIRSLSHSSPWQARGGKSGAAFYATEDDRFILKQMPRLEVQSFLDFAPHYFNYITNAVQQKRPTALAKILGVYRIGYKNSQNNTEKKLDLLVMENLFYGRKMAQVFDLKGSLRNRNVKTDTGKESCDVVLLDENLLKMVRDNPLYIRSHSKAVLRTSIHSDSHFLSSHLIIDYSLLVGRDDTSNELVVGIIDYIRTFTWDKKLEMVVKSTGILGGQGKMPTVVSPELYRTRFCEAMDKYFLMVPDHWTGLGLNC

DC50, 0.001 to 0.1 µM:
Cc1cccc(-c2ccn(-c3cc(N4CCOCC4)nc(OCCc4ccc(NC(=O)CCCCCNC(=O)COc5cc(-c6scnc6C)ccc5CNC(=O)[C@@H]5C[C@@H](O)CN5C(=O)[C@@H](NC(=O)C5(F)CC5)C(C)(C)C)cc4)n3)n2)c1 [Example 66, (2S,4R)-1-((S)-2-(1-fluorocyclopropane-1-carboxamido)-3,3-dimethylbutanoyl)-4-hydroxy-N-(4-(4-methylthiazol-5-yl)-2-(2-((6-((4-(2-((4-morpholino-6-(3-(m-tolyl)-1H-pyrazol-1-yl)pyrimidin-2-yl)oxy)ethyl)phenyl)amino)-6-oxohexyl)amino)-2-oxoethoxy)benzyl) pyrrolidine-2-carboxamide]
Cc1cccc(-c2ccn(-c3cc(N4CCOCC4)nc(OC4CCN(c5ccc(NC(=O)C[C@H](NC(=O)[C@@H]6C[C@@H](O)CN6C(=O)[C@@H](NC(=O)C6(F)CC6)C(C)(C)C)c6ccc(-c7scnc7C)cc6)cc5)CC4)n3)n2)c1 [Example 67, (2S,4R)-1-((S)-2-(1-fluorocyclopropane-1-carboxamido)-3,3-dimethylbutanoyl)-4-hydroxy-N—((S)-1-(4-(4-methylthiazol-5-yl)phenyl)-3-((4-(4-((4-morpholino-6-(3-(m-tolyl)-1H-pyrazol-1-yl)pyrimidin-2-yl)oxy)piperidin-1-yl)phenyl)amino)-3-oxopropyl)pyrrolidine-2-carboxamide]
Cc1cccc(-c2ccn(-c3cc(N4CCOCC4)nc(OC4CCN(c5ccc(NC(=O)CC[C@H](NC(=O)[C@@H]6C[C@@H](O)CN6C(=O)[C@@H](NC(=O)C6(F)CC6)C(C)(C)C)c6ccc(-c7scnc7C)cc6)cc5)CC4)n3)n2)c1 [Example 68, (2S,4R)-1-((S)-2-(1-fluorocyclopropane-1-carboxamido)-3,3-dimethylbutanoyl)-4-hydroxy-N—((S)-1-(4-(4-methylthiazol-5-yl)phenyl)-4-((4-(4-((4-morpholino-6-(3-(m-tolyl)-1H-pyrazol-1-yl)pyrimidin-2-yl)oxy)piperidin-1-yl)phenyl)amino)-4-oxobutyl)pyrrolidine-2-carboxamide]
Cc1cccc(-c2ccn(-c3cc(N4CCOCC4)nc(OC4CCN(c5ccc(NC(=O)CCCC[C@H](NC(=O)[C@@H]6C[C@@H](O)CN6C(=O)[C@@H](NC(=O)C6(F)CC6)C(C)(C)C)c6ccc(-c7scnc7C)cc6)cc5)CC4)n3)n2)c1 [Example 69, (2S,4R)-1-((S)-2-(1-fluorocyclopropane-1-carboxamido)-3,3-dimethylbutanoyl)-4-hydroxy-N—((S)-1-(4-(4-methylthiazol-5-yl)phenyl)-6-((4-(4-((4-morpholino-6-(3-(m-tolyl)-1H-pyrazol-1-yl)pyrimidin-2-yl)oxy)piperidin-1-yl)phenyl)amino)-6-oxohexyl)pyrrolidine-2-carboxamide]
Cc1cccc(-c2ccn(-c3cc(N4CCOCC4)nc(OCCc4ccc(C#CC5CCN(C(=O)C[C@H](NC(=O)[C@@H]6C[C@@H](O)CN6C(=O)[C@@H](NC(=O)C6(F)CC6)C(C)(C)C)c6ccc(-c7scnc7C)cc6)CC5)cc4)n3)n2)c1 [Example 70, (2S,4R)-1-((S)-2-(1-fluorocyclopropane-1-carboxamido)-3,3-dimethylbutanoyl)-4-hydroxy-N—((S)-1-(4-(4-methylthiazol-5-yl)phenyl)-3-(4-((4-(2-((4-morpholino-6-(3-(m-tolyl)-1H-pyrazol-1-yl)pyrimidin-2-yl)oxy)ethyl)phenyl)ethynyl)piperidin-1-yl)-3-oxopropyl) pyrrolidine-2-carboxamide]
Cc1cccc(-c2ccn(-c3cc(N4CCOCC4)nc(OCCc4ccc(C#CC5CCN(C(=O)CC[C@H](NC(=O)[C@@H]6C[C@@H](O)CN6C(=O)[C@@H](NC(=O)C6(F)CC6)C(C)(C)C)c6ccc(-c7scnc7C)cc6)CC5)cc4)n3)n2)c1 [Example 71, (2S,4R)-1-((S)-2-(1-fluorocyclopropane-1-carboxamido)-3,3-dimethylbutanoyl)-4-hydroxy-N—((S)-1-(4-(4-methylthiazol-5-yl)phenyl)-4-(4-((4-(2-((4-morpholino-6-(3-(m-tolyl)-1H-pyrazol-1-yl)pyrimidin-2-yl)oxy)ethyl)phenyl)ethynyl)piperidin-1-yl)-4-oxobutyl) pyrrolidine-2-carboxamide]
Cc1cccc(-c2ccn(-c3cc(N4CCOCC4)nc(OCCc4ccc(C#CC5CCN(C(=O)CCCC[C@H](NC(=O)[C@@H]6C[C@@H](O)CN6C(=O)[C@@H](NC(=O)C6(F)CC6)C(C)(C)C)c6ccc(-c7scnc7C)cc6)CC5)cc4)n3)n2)c1 [Example 72, (2S,4R)-1-((S)-2-(1-fluorocyclopropane-1-carboxamido)-3,3-dimethylbutanoyl)-4-hydroxy-N—((S)-1-(4-(4-methylthiazol-5-yl)phenyl)-6-(4-((4-(2-((4-morpholino-6-(3-(m-tolyl)-1H-pyrazol-1-yl)pyrimidin-2-yl)oxy)ethyl)phenyl)ethynyl)piperidin-1-yl)-6-oxohexyl) pyrrolidine-2-carboxamide]
Cc1cccc(-c2ccn(-c3cc(N4CCOCC4)nc(OCCc4ccc(NC(=O)NC5CN(C(=O)C[C@H](NC(=O)[C@@H]6C[C@@H](O)CN6C(=O)[C@@H](NC(=O)C6(F)CC6)C(C)(C)C)c6ccc(-c7scnc7C)cc6)C5)cc4)n3)n2)c1 [Example 73, (2S,4R)-1-((S)-2-(1-fluorocyclopropane-1-carboxamido)-3,3-dimethylbutanoyl)-4-hydroxy-N—((S)-1-(4-(4-methylthiazol-5-yl)phenyl)-3-(3-(3-(4-(2-((4-morpholino-6-(3-(m-tolyl)-1H-pyrazol-1-yl)pyrimidin-2-yl)oxy)ethyl)phenyl)ureido)azetidin-1-yl)-3-oxopropyl) pyrrolidine-2-carboxamide]
Cc1cccc(-c2ccn(-c3cc(N4CCOCC4)nc(OCCc4ccc(NC(=O)NC5CN(C(=O)CC[C@H](NC(=O)[C@@H]6C[C@@H](O)CN6C(=O)[C@@H](NC(=O)C6(F)CC6)C(C)(C)C)c6ccc(-c7scnc7C)cc6)C5)cc4)n3)n2)c1 [Example 74, (2S,4R)-1-((S)-2-(1-fluorocyclopropane-1-carboxamido)-3,3-dimethylbutanoyl)-4-hydroxy-N—((S)-1-(4-(4-methylthiazol-5-yl)phenyl)-4-(3-(3-(4-(2-((4-morpholino-6-(3-(m-tolyl)-1H-pyrazol-1-yl)pyrimidin-2-yl)oxy)ethyl)phenyl)ureido)azetidin-1-yl)-4-oxobutyl) pyrrolidine-2-carboxamide]
Cc1cccc(-c2ccn(-c3cc(N4CCOCC4)nc(OCCc4ccc(N5CCN(C(=O)C[C@H](NC(=O)[C@@H]6C[C@@H](O)CN6C(=O)[C@@H](NC(=O)C6(F)CC6)C(C)(C)C)c6ccc(-c7scnc7C)cc6)CC5)cc4)n3)n2)c1 [Example 75, (2S,4R)-1-((S)-2-(1-fluorocyclopropane-1-carboxamido)-3,3-dimethylbutanoyl)-4-hydroxy-N—((S)-1-(4-(4-methylthiazol-5-yl)phenyl)-3-(4-(4-(2-((4-morpholino-6-(3-(m-tolyl)-1H-pyrazol-1-yl)pyrimidin-2-yl)oxy)ethyl)phenyl)piperazin-1-yl)-3-oxopropyl)pyrrolidine-2-carboxamide]
Cc1cccc(-c2ccn(-c3cc(N4CCOCC4)nc(OCCc4ccc(N5CCN(C(=O)CC[C@H](NC(=O)[C@@H]6C[C@@H](O)CN6C(=O)[C@@H](NC(=O)C6(F)CC6)C(C)(C)C)c6ccc(-c7scnc7C)cc6)CC5)cc4)n3)n2)c1 [Example 76, (2S,4R)-1-((S)-2-(1-fluorocyclopropane-1-carboxamido)-3,3-dimethylbutanoyl)-4-hydroxy-N—((S)-1-(4-(4-methylthiazol-5-yl)phenyl)-4-(4-(4-(2-((4-morpholino-6-(3-(m-tolyl)-1H-pyrazol-1-yl)pyrimidin-2-yl)oxy)ethyl)phenyl)piperazin-1-yl)-4-oxobutyl)pyrrolidine-2-carboxamide]
Cc1cccc(-c2ccn(-c3cc(N4CCOCC4)nc(OCCc4ccc(N5CCN(C(=O)CCCC[C@H](NC(=O)[C@@H]6C[C@@H](O)CN6C(=O)[C@@H](NC(=O)C6(F)CC6)C(C)(C)C)c6ccc(-c7scnc7C)cc6)CC5)cc4)n3)n2)c1 [Example 77, (2S,4R)-1-((S)-2-(1-fluorocyclopropane-1-carboxamido)-3,3-dimethylbutanoyl)-4-hydroxy-N—((S)-1-(4-(4-methylthiazol-5-yl)phenyl)-6-(4-(4-(2-((4-morpholino-6-(3-(m-tolyl)-1H-pyrazol-1-yl)pyrimidin-2-yl)oxy)ethyl)phenyl)piperazin-1-yl)-6-oxohexyl)pyrrolidine-2-carboxamide]
Cc1cccc(-c2ccn(-c3cc(N4CCOCC4)nc(OCCc4ccc(NC(=O)NC5CCN(C(=O)C[C@H](NC(=O)[C@@H]6C[C@@H](O)CN6C(=O)[C@@H](NC(=O)C6(F)CC6)C(C)(C)C)c6ccc(-c7scnc7C)cc6)CC5)cc4)n3)n2)c1 [Example 78, (2S,4R)-1-((S)-2-(1-fluorocyclopropane-1-carboxamido)-3,3-dimethylbutanoyl)-4-hydroxy-N—((S)-1-(4-(4-methylthiazol-5-yl)phenyl)-3-(4-(3-(4-(2-((4-morpholino-6-(3-(m-tolyl)-1H-pyrazol-1-yl)pyrimidin-2-yl)oxy)ethyl)phenyl)ureido)piperidin-1-yl)-3-oxopropyl) pyrrolidine-2-carboxamide]
Cc1cccc(-c2ccn(-c3cc(N4CCOCC4)nc(OCCc4ccc(NC(=O)NC5CCN(C(=O)CC[C@H](NC(=O)[C@@H]6C[C@@H](O)CN6C(=O)[C@@H](NC(=O)C6(F)CC6)C(C)(C)C)c6ccc(-c7scnc7C)cc6)CC5)cc4)n3)n2)c1 [Example 79, (2S,4R)-1-((S)-2-(1-fluorocyclopropane-1-carboxamido)-3,3-dimethylbutanoyl)-4-hydroxy-N—((S)-1-(4-(4-methylthiazol-5-yl)phenyl)-4-(4-(3-(4-(2-((4-morpholino-6-(3-(m-tolyl)-1H-pyrazol-1-yl)pyrimidin-2-yl)oxy)ethyl)phenyl)ureido)piperidin-1-yl)-4-oxobutyl) pyrrolidine-2-carboxamide]

From US20260317299A1, “PIKFYVE PROTEIN KINASE DEGRADATION AGENT AND USE THEREOF” (Shanghai Institute of Organic Chemistry, Chinese Academy of …, priority 2023, published 2026)
